We go through 8 compounds from US5635525A, “Benzimidazole derivatives as angiotensin II receptor antagonists, pharmacticals, and treatment of hypertension therewith” (Hoechst Aktiengesellschaft, priority 1991, dated 1997).

The test has as its target angiotensin II receptor. Put plainly: displacement of 125I- or 3H-angiotensin II from receptor preparations from various organs (liver, lung, adrenal gland, brain etc.). As to conditions: "according to the abovementioned process"; which of the two binding methods is not stated. On the procedure:
Bound and free radioligand are then separated by filtration through micro glass fiber filters (GF51, Schleicher & Schull) on a cell collector (SKATRON).
By measurement of the receptor-bund radioactivity on the filters by means of a beta spectrometer or gamma spectrometer, the degree of displacement of the radioligand from the receptor by the test compounds is determined.
As usually defined, the IC50 is the concentration that gives 50% inhibition. A low value points to higher potency. Compound `CCCCc1nc2cccc(C(=O)O)c2n1Cc1ccn2c(C(=O)O)c(-c3ccccc3)nc2n1` [Example 3, 2-n-Butyl-1-[(3-carboxy-2-phenylimidazo[1,2-a]pyrimidin-7-yl)methyl]-1H-benzimidazole-7-carboxylic acid] displayed an IC50 of 149 nM. In the case of `CCNC(=O)NS(=O)(=O)c1ccccc1-c1ccc(Cn2c(CC)nc3c(C)ccnc32)cc1` [Example 31, 2-Ethyl-3-[(2'-ethylaminocarbonylaminosulfonylbiphenyl-4-yl)methyl]-7-methyl-imidazo[4,5-b]pyridine], the 50% inhibitory concentration (IC50) was 0.48 nM.

Consider “2-n-Butyl-3-[(2'-allylaminocarbonylaminosulfonylbiphenyl-4-yl)-methyl]-3H-imidazo-[4,5-b]/[5,4-b]pyridine [Example 27]”, for which the IC50 turned out to be 1.1 nM. Consider `CCCCc1nc2cccc(C(=O)O)c2n1Cc1ccc2c(Cl)c(C(=O)O)sc2c1` [Example 1, 2-n-Butyl-1-[(2-carboxy-3-chlorobenzo[b]thiophen-6-yl)-methyl]-1H-benzimidazole-7-carboxylic acid], for which the IC50 came out at 78 nM. The result for `CCCNC(=O)NS(=O)(=O)c1ccccc1-c1ccc(Cn2c(CC)nc3c(C)cc(C)nc32)cc1` [Example 51] reads 1.8 nM. `C=CCOC(=O)N(C(=O)OCC=C)S(=O)(=O)c1ccccc1-c1ccc(Cn2c(CC)nc3c(C)cc(C)nc32)cc1` [Example 15] showed a half-maximal inhibitory concentration (IC50) of 0.8 nM. The result for `CCCCc1nc2cccc(C(=O)O)c2n1Cc1ccc(-c2ccccc2S(=O)(=O)NC(=O)OCC)cc1` [Example 19, 2-n-Butyl-1-[(2'-ethoxycarbonylaminosulfonylbiphenyl-4-yl)methyl]-1H-benzimidazole-7-carboxylic acid] reads 0.74 nM. Take `CCCCc1nc2cccc(C(=O)O)c2n1Cc1ccn2c(C(=O)O)c(-c3ccccc3)nc2c1` [Example 2, 2-n-Butyl-1-[(3-carboxy-2-phenylimidazo[1,2-a]pyridin-7-yl)methyl]-1H-benzimidazole-7-carboxylic acid]: the concentration for half-maximal inhibition (IC50) turned out to be 65 nM.
